Data: patent US6875774B2, “Aza-bridged bicyclic amine derivatives for use as novel cholinergic receptor ligands” (The University of North Carolina, priority 2002, dated 2005)
Counter-ions that a name gives are not always drawn. Like-named read-outs stand apart in the source and are kept apart here.

Columns and labels:
[1] = biological target: T1, human M1 receptor (Homo sapiens, UniProt P11229); experiment: biochemical; format: binding
T1 construct: made in house; host or cells: Sf9 insect cells (baculovirus)
T1 sequence (P11229 1-460): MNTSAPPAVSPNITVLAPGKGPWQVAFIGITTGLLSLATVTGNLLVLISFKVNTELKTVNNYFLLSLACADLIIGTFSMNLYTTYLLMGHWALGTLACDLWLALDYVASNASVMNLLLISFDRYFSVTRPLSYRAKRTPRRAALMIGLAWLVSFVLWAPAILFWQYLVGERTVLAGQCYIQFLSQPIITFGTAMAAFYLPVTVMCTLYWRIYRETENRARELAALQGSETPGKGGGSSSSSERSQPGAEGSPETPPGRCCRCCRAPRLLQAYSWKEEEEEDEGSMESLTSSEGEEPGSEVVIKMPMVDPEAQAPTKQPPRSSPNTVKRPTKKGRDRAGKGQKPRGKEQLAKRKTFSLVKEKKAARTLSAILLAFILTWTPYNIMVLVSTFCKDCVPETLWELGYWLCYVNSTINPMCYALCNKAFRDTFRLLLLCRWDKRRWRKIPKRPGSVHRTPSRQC

[2] = biological target: T2, human M2 receptor (Homo sapiens, UniProt P08172); experiment: Muscarinic M2 competition binding assay ([3H]QNB, Sf9 membranes)
T2 construct: made in house; host or cells: Sf9 insect cells (baculovirus)
T2 sequence (P08172 1-466): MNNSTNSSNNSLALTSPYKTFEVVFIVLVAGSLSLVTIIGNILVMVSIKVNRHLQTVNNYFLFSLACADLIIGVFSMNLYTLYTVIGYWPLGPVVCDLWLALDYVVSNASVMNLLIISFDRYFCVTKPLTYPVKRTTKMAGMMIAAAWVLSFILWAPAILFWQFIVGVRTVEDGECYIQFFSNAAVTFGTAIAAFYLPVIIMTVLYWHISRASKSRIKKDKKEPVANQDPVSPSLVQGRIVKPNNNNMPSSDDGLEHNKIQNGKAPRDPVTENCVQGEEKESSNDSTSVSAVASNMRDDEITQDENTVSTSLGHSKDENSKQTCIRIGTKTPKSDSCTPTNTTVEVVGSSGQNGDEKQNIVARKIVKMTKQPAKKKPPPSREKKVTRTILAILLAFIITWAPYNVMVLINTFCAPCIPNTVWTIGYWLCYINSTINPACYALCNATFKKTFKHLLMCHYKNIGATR

[3] = biological target: T1, human M1 receptor; experiment: Functional assay of M1 muscarinic receptors ([3H]inositol phosphate accumulation in Sf9 cells); format: cell-based; details: 100 μM carbachol with increasing amounts of compound (FIG. 3)
Description: A functional assay of M1 muscarinic receptors was performed. M1 receptor activity was determined by measuring activation of the Gαq effector, phospholipase C-β. Recombinant human M1 receptor was expressed (48 h) from a baculovirus in Sf9 insect cells. The inositol lipid pool of cells was radiolabeled by incubating the cells overnight in inositol-free Grace's medium containing 1 μCi of myo-[^3H]inositol. The medium was supplemented with 50 mM HEPES, pH 7.4, and 10 mM LiCl (final concentration) and placed in a 27° C. bath for 10 min prior to assay. The assay was initiated by addition of the appropriate ligand(s) and incubations continued for 20 min. The assay was terminated by aspirating the medium and adding 750 μL of ice-cold 50 mM formic acid. After 30 min at 4° C., the samples were neutralized with 250 μL of 150 mM NH4OH. [^3H]Inositol phosphates were isolated by ion exchange chromatography on Dowex AG 1-X8 columns and quantitated by liquid scintillation counting. […] The data shown in FIG. 3 are the results of an experiment performed in triplicate.

For `CCOC(=O)C1=C(O)C2CCCN(C1)C2` (stereo not drawn) [Compound 4, 3-Ethoxycarbonyl-4-hydroxy-1-azabicyclo[3.3.1]non-3-ene], the Ki ([1]; hM1 receptor Ki) was 1.01 ± 0.068 µM and the Ki ([2]; hM2 receptor Ki) was 2.85 ± 0.179 µM.
For `CCOC(=O)C1=C(O)[C@H]2CC[C@H](COCc3ccccc3)N(C1)C2` (relative stereo) [Compound 5, exo-8-Benzyloxymethyl-3-ethoxycarbonyl-4-hydroxy-1-azabicyclo[3.3.1]non-3-ene], the Ki ([1]; read-out: hM1 receptor Ki) was 0.203 ± 0.083 µM, the Ki ([2]; read-out: hM2 receptor Ki) was 0.0843 ± 0.0081 µM and the “Ki fold greater than atropine at the human M2 receptor” value ([2]; relative to atropine) was 14 fold. For the same molecule, the “functional activity at muscarinic receptor” value [3] was “muscarinic receptor antagonist”.
`CCOC(=O)C1=C(O)C2CCC(CN(C)C)N(C1)C2` (stereo not drawn) [Compound 7, exo-8-Dimethylaminomethyl-3-ethoxycarbonyl-4-hydroxy-1-azabicyclo[3.3.1]non-3-ene] showed a Ki ([1]; read-out: hM1 receptor Ki) of 16.8 ± 15.2 µM and a Ki ([2]; read-out: hM2 receptor Ki) of 23.9 ± 13.7 µM.
Molecule `O=C1CCN2CCCC1C2` (stereo not drawn) [Compound 9, 1-Azabicyclo[3.3.1]nonan-4-one] has a Ki ([1]; hM1 receptor Ki) greater than 100 µM and a Ki ([2]; hM2 receptor Ki) greater than 100 µM.
`CCOC(=O)C1=C(O)C2CCC(CN(C)C)N(C1)C2` (stereo not drawn) [Compound 8, endo-8-Dimethylaminomethyl-3-ethoxycarbonyl-4-hydroxy-1-azabicyclo[3.3.1]non-3-ene] showed a Ki ([1]; read-out: hM1 receptor Ki) of 12.4 ± 3.74 µM and a Ki ([2]; read-out: hM2 receptor Ki) of 47.6 ± 14.8 µM.
For `CCOC(=O)C1=C(O)[C@H]2CC[C@@H](COCc3ccccc3)N(C1)C2` (relative stereo) [Compound 6, endo-8-Benzyloxymethyl-3-ethoxycarbonyl-4-hydroxy-1-azabicyclo[3.3.1]non-3-ene], the Ki ([1]; read-out: hM1 receptor Ki) was 10.3 ± 2.38 µM and the Ki ([2]; read-out: hM2 receptor Ki) was 7.35 ± 1.09 µM.
In the case of `CN(C)CC1CCC2CN1CCC2=O` (stereo not drawn) [Compound 12, exo-8-Dimethylaminomethyl-1-azabicyclo[3.3.1]nonan-4-one-HCl], the Ki ([1]; hM1 receptor Ki) is reported as greater than 100 µM and the Ki ([2]; hM2 receptor Ki) is reported as greater than 100 µM.
Molecule `CN(C)CC1CCC2CN1CCC2=O` (stereo not drawn) [Compound 13, endo-8-Dimethylaminomethyl-1-azabicyclo[3.3.1]nonan-4-one-HCl] has a Ki ([1]; read-out: hM1 receptor Ki) greater than 100 µM and a Ki ([2]; read-out: hM2 receptor Ki) greater than 100 µM.
